# Assay results published in US20240041827A1, “COMPOSITIONS FOR THE TREATMENT OF FAT RELATED CONDITIONS AND DISORDERS” (priority 2020, published 2024).
# Like-named read-outs stand apart in the source and are kept apart here.
# Test system: human visceral preadipocytes
# Test: cells
# Conditions: for IC50: Homo sapiens
# Protocol: Human visceral preadipocytes were seeded in 96-well white clear bottom plates at 10,000 cells per well in 100 μl pre-adipocyte medium and incubated overnight at 37° C. 5% CO2. On the following day, adipogenic differentiation was induced by addition of 100 μl/well differentiation medium and incubation continued for 5 days. Adipogenic differentiation was verified by microscopic evaluation, addition of adipored reagents and fluorescent measurement at Ex485 nm/Em572 nm. […] Staurosporine (1 μM) and 0.2% DMSO were used as controls. Plates were incubated at 37° C. 5% CO2 for 2, 6 and 24 hours. Following incubation, cytotoxicity was measured using Cell Titer Glo 2.0 (Promega).
# Test Item RZL-12 (1-300 μM) was prepared on the day of the testing as 150 mM stock solutions in DMSO. The 150 mM represents a 500×stock of the highest desired tested concentration. The 150 mM stock solution was first serially diluted in DMSO to acquire 500×stock solutions for each of the RZL-012 concentrations. The 500×stock solutions were then diluted 1:25 in medium to acquire 20×intermediate stock solutions. Finally, the 20×intermediate stock solutions were further diluted 1:20 in the assay (on the plate) that included seeded cells.
# The 600 μM represents a 20× stock of the highest desired tested concentration. […] Finally, the 20×intermediate stock solutions were further diluted 1:20 in the assay plate that included seeded cells.
# Human visceral pre-adipocytes (HPrAD-vis): HPrAD-vis cells (Lonza cat #PT-5005) were thawed at 37° C. and transferred into 50 ml tubes containing pre-adipocytes PGM-2 growth medium (PBM-2, 10% FBS, 1-glutamine, GA-1000). Cells were centrifuged at 300 g for 10 minutes, the supernatant was removed (Leaving about 1 ml of wash medium for not disrupting the cells) and 2 ml fresh PGM-2 medium was added. After resuspension, cells were counted and seeded in T-75 and T25 flasks at a density of 9,000 cells/cm^2 ([…], 225,000 cells/T25 flask). Medium was changed every 2-3 days until reached confluence of 70%.
# Cells were sub-cultured only once, as soon as they reached 70% confluence. For this purpose, the culture medium of each flask was removed and cells were washed once with 5 ml PBS. The flask was shaken to ensure that the entire surface was covered and the PBS was removed. Then, 3 ml/T75 flask or 1 ml/T25 flask of fresh dedicated Trypsin/EDTA solution (from Lonza) was added and the flasks were incubated for 3-4 minutes at RT until ˜90% cells were detached. The Trypsin/EDTA solution was then neutralized by addition of 6 ml/T75 flask or 3 ml/T25 flask of full PGM-2 growth medium. Cells were collected in 50 ml tubes and centrifuged 10 minutes at 300 g. The supernatant was removed and the cells were resuspended in 3 ml fresh medium. Cells were then counted using a haemacytometer slide after being diluted 1:2 in trypan blue (SIGMA). For sub-culturing, cells were seeded in new T75 flasks at a density of 9,000 cells/cm^2 containing 15 ml fresh growth medium. Alternatively, the cells were seeded in 96-well culture plates at a density of 10,000 cells/well for the cell treatments.
# HPrAD-vis cells: HPrAD-vis passaged once were seeded in 96-well plates as described above (10000cells/well in 100 μl medium) and allowed to settle overnight at 37° C., 5% CO2. Following day, adipogenic differentiation was induced by addition of 100 μl/well differentiation medium and incubated for 5 days. Adipogenic differentiation was verified by microscopic evaluation, addition of adipored reagents and fluorescent measurement at Ex485 nm/Em572 nm. In the morning of day 6, test and reference items were prepared as described above. Cells' medium was replaced with 90 μl fresh differentiation medium. […] Staurosporine (1 μM) and 0.2% DMSO were used as controls. Plates were incubated at 37° C. 5% CO2 for 2, 6 and 24 hours. Following incubation, cell viability was determined using the CellTiter-Gg® viability reagent (Promega) with reading of plates for luminescence. […]
smiles,measurement,setting,value
"C[N+](C)(C)CCCCCn1c2ccc(Br)cc2c2cc(Br)ccc21.[Cl-] [RZL-012, 5-(3,6-dibromo-9H-carbazol-9-yl)-N,N,N-trimethylpentan-1-aminium chloride]",IC50,"2 h, read-out: IC50 of RZL-12 in the presence of Collagenase, Collagenase 0, 2 h incubation",31.4 µM
same,IC50,"2 h, read-out: IC50 of RZL-12 in the presence of Collagenase, Collagenase 0.1 μM, 2 h incubation",32.4 µM
same,IC50,"2 h, read-out: IC50 of RZL-12 in the presence of Collagenase, Collagenase 0.3 μM, 2 h incubation",35.7 µM
same,IC50,"2 h, read-out: IC50 of RZL-12 in the presence of Collagenase, Collagenase 1 μM, 2 h incubation",32.6 µM
same,IC50,"2 h, read-out: IC50 of RZL-12 in the presence of Collagenase, Collagenase 3 μM, 2 h incubation",~31.2 µM
same,IC50,"2 h, read-out: IC50 of RZL-12 in the presence of Collagenase, Collagenase 10 μM, 2 h incubation",71.3 µM
same,IC50,"2 h, read-out: IC50 of RZL-12 in the presence of Collagenase, Collagenase 30 μM, 2 h incubation",~93.2 µM
same,IC50,"6 h, read-out: IC50 of RZL-12 in the presence of Collagenase, Collagenase 0, 6 h incubation",34.6 µM
same,IC50,"6 h, read-out: IC50 of RZL-12 in the presence of Collagenase, Collagenase 0.1 μM, 6 h incubation",44.3 µM
same,IC50,"6 h, read-out: IC50 of RZL-12 in the presence of Collagenase, Collagenase 0.3 μM, 6 h incubation",45.1 µM
same,IC50,"6 h, read-out: IC50 of RZL-12 in the presence of Collagenase, Collagenase 1 μM, 6 h incubation",44.2 µM
same,IC50,"6 h, read-out: IC50 of RZL-12 in the presence of Collagenase, Collagenase 3 μM, 6 h incubation",~30.5 µM
same,IC50,"6 h, read-out: IC50 of RZL-12 in the presence of Collagenase, Collagenase 10 μM, 6 h incubation",36.5 µM
same,IC50,"6 h, read-out: IC50 of RZL-12 in the presence of Collagenase, Collagenase 30 μM, 6 h incubation",38.8 µM
same,IC50,"24 h, read-out: IC50 of RZL-12 in the presence of Collagenase, Collagenase 0, 24 h incubation",22.8 µM
same,IC50,"24 h, read-out: IC50 of RZL-12 in the presence of Collagenase, Collagenase 0.1 μM, 24 h incubation",38 µM
same,IC50,"24 h, read-out: IC50 of RZL-12 in the presence of Collagenase, Collagenase 0.3 μM, 24 h incubation",38.5 µM
same,IC50,"24 h, read-out: IC50 of RZL-12 in the presence of Collagenase, Collagenase 1 μM, 24 h incubation",~36.1 µM
same,IC50,"24 h, read-out: IC50 of RZL-12 in the presence of Collagenase, Collagenase 3 μM, 24 h incubation",22.9 µM
same,IC50,"24 h, read-out: IC50 of RZL-12 in the presence of Collagenase, Collagenase 10 μM, 24 h incubation",28.8 µM
same,IC50,"24 h, read-out: IC50 of RZL-12 in the presence of Collagenase, Collagenase 30 μM, 24 h incubation",28.8 µM
same,IC50,"read-out: IC50 when combined, RZL-012 and collagenase combined",0.02 µM
same,Average RZL-012 and collagenase induced cell death (% vs untreated cells),"RZL12 0.01 μM, Collagenase 0, 2 h of incubation",10.0%
same,Average RZL-012 and collagenase induced cell death (% vs untreated cells),"RZL12 0.01 μM, Collagenase 0.1 μM, 2 h of incubation",6.5%
same,Average RZL-012 and collagenase induced cell death (% vs untreated cells),"RZL12 0.01 μM, Collagenase 0.3 μM, 2 h of incubation",0.8%
same,Average RZL-012 and collagenase induced cell death (% vs untreated cells),"RZL12 0.01 μM, Collagenase 1 μM, 2 h of incubation",5.3%
same,Average RZL-012 and collagenase induced cell death (% vs untreated cells),"RZL12 0.01 μM, Collagenase 3 μM, 2 h of incubation",20.5%
same,Average RZL-012 and collagenase induced cell death (% vs untreated cells),"RZL12 0.01 μM, Collagenase 10 μM, 2 h of incubation",30.3%
same,Average RZL-012 and collagenase induced cell death (% vs untreated cells),"RZL12 0.01 μM, Collagenase 30 μM, 2 h of incubation",46.4%
same,Average RZL-012 and collagenase induced cell death (% vs untreated cells),"RZL12 1 μM, Collagenase 0, 2 h of incubation",7.0%
same,Average RZL-012 and collagenase induced cell death (% vs untreated cells),"RZL12 1 μM, Collagenase 0, 24 h of incubation",4.88%
same,Average RZL-012 and collagenase induced cell death (% vs untreated cells),"RZL12 1 μM, Collagenase 0.1 μM, 2 h of incubation",6.5%
same,Average RZL-012 and collagenase induced cell death (% vs untreated cells),"RZL12 1 μM, Collagenase 0.1 μM, 24 h of incubation",8.18%
same,Average RZL-012 and collagenase induced cell death (% vs untreated cells),"RZL12 1 μM, Collagenase 0.3 μM, 2 h of incubation",3.0%
same,Average RZL-012 and collagenase induced cell death (% vs untreated cells),"RZL12 1 μM, Collagenase 0.3 μM, 24 h of incubation",−0.25%
same,Average RZL-012 and collagenase induced cell death (% vs untreated cells),"RZL12 1 μM, Collagenase 1 μM, 2 h of incubation",2.0%
same,Average RZL-012 and collagenase induced cell death (% vs untreated cells),"RZL12 1 μM, Collagenase 1 μM, 24 h of incubation",16.48%
same,Average RZL-012 and collagenase induced cell death (% vs untreated cells),"RZL12 1 μM, Collagenase 3 μM, 2 h of incubation",19.2%
same,Average RZL-012 and collagenase induced cell death (% vs untreated cells),"RZL12 1 μM, Collagenase 3 μM, 24 h of incubation",28.74%
same,Average RZL-012 and collagenase induced cell death (% vs untreated cells),"RZL12 1 μM, Collagenase 10 μM, 2 h of incubation",29.9%
same,Average RZL-012 and collagenase induced cell death (% vs untreated cells),"RZL12 1 μM, Collagenase 10 μM, 24 h of incubation",64.29%
same,Average RZL-012 and collagenase induced cell death (% vs untreated cells),"RZL12 1 μM, Collagenase 30 μM, 2 h of incubation",48.0%
same,Average RZL-012 and collagenase induced cell death (% vs untreated cells),"RZL12 1 μM, Collagenase 30 μM, 24 h of incubation",78.45%
same,Average RZL-012 and collagenase induced cell death (% vs untreated cells),"RZL12 3 μM, Collagenase 0, 2 h of incubation",5.9%
same,Average RZL-012 and collagenase induced cell death (% vs untreated cells),"RZL12 3 μM, Collagenase 0, 24 h of incubation",6.40%
same,Average RZL-012 and collagenase induced cell death (% vs untreated cells),"RZL12 3 μM, Collagenase 0.1 μM, 2 h of incubation",−1.6%
same,Average RZL-012 and collagenase induced cell death (% vs untreated cells),"RZL12 3 μM, Collagenase 0.1 μM, 24 h of incubation",3.62%
same,Average RZL-012 and collagenase induced cell death (% vs untreated cells),"RZL12 3 μM, Collagenase 0.3 μM, 2 h of incubation",1.1%
same,Average RZL-012 and collagenase induced cell death (% vs untreated cells),"RZL12 3 μM, Collagenase 0.3 μM, 24 h of incubation",2.09%
same,Average RZL-012 and collagenase induced cell death (% vs untreated cells),"RZL12 3 μM, Collagenase 1 μM, 2 h of incubation",6.1%
same,Average RZL-012 and collagenase induced cell death (% vs untreated cells),"RZL12 3 μM, Collagenase 1 μM, 24 h of incubation",16.21%
same,Average RZL-012 and collagenase induced cell death (% vs untreated cells),"RZL12 3 μM, Collagenase 3 μM, 2 h of incubation",18.0%
same,Average RZL-012 and collagenase induced cell death (% vs untreated cells),"RZL12 3 μM, Collagenase 3 μM, 24 h of incubation",27.36%
same,Average RZL-012 and collagenase induced cell death (% vs untreated cells),"RZL12 3 μM, Collagenase 10 μM, 2 h of incubation",26.4%
same,Average RZL-012 and collagenase induced cell death (% vs untreated cells),"RZL12 3 μM, Collagenase 10 μM, 24 h of incubation",63.40%
same,Average RZL-012 and collagenase induced cell death (% vs untreated cells),"RZL12 3 μM, Collagenase 30 μM, 2 h of incubation",47.6%
same,Average RZL-012 and collagenase induced cell death (% vs untreated cells),"RZL12 3 μM, Collagenase 30 μM, 24 h of incubation",77.35%
